US20250154288A1, “CYTOTOXICITY TARGETING CHIMERAS FOR C-C CHEMOKINE RECEPTOR 2-EXPRESSING CELLS” (GLAXOSMITHKLINE INTELLECTUAL PROPERTY DEVELOPMENT LIMITED, priority 2022, published 2025)
Counter-ions that a name gives are not always drawn.

Legend:
[1] = biological target: T1, CHOK1 cells engineered to overexpress human CCR2 (Homo sapiens, UniProt P41597); assay: Antibody Dependent Cellular Cytotoxicity (ADCC) Reporter Assay; format: cell-based; settings: with anti-cotinine antibody (human IgG1 Fc, S239D/I332E); Jurkat FcγRIIIa NFAT-luciferase reporter cells; average if several runs; read-out: ADCC Reporter Assay pEC50 (converted)
T1 construct: expressed in transfected cells; host or cells: CHOK1
Outline: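 CHOK1-hCCR2 target cells co-incubated ~12-18 h with compound (1 pM–10 μM), anti-cotinine rabbit/human IgG1 S239D/I332E antibody (0.01–200 μg/mL) and Jurkat FcγRIIIa NFAT-luciferase reporter cells. Luminescence signal:background versus no-compound wells; EC50 from four-parameter fit, reported as pEC50, averaged over runs.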

[2] = biological target: Anti-cotinine antibody (SEQ ID NO: 11 / SEQ ID NO: 12); assay: Binding of Anti-Cotinine Antibody to ARM Compounds measured by Surface Plasmon Resonance (SPR); design: species or system rabbit variable region with human IgG1 Fc domain; settings: Biacore T200, 37° C., Kd = koff/kon, average if several runs
Experimental: Anti-cotinine antibodies having a heavy chain sequence of SEQ ID NO: 11 and a light chain sequence of SEQ ID NO: 12 (rabbit variable region with human IgG1 Fc domain containing a DE mutation (S239D/I332E)) were captured on one or more flow cells of a protein A sensor chip (Cytiva) using a Biacore T200 while reserving flow cell 1 as a reference. Following capture, a 3000 second wait step was included to reduce drift during compound analysis. ARM compounds of Formula (I) were then injected at 100 μL/min with 200 and 2000 second association and dissociation times. The entire experiment was run at 37° C. with running buffer containing 10 mM HEPES pH 7.4, 150 mM NaCl, 0.005% P20 and 1% DMSO. ARM compounds of Formula (I) were titrated with a top concentration of 200 nM using a 3-fold 5-point dilution series and a corresponding 5-injection buffer cycle was run for blank subtraction. Data were double referenced by subtracting the response of the reference flow cell from that of the antibody-containing flow cell and subsequently subtracting the referenced blank sensorgrams. Following compound analysis, the surface was regenerated using a 30 second injection of pH 1.5 glycine at a flow rate of 30 μL/min after which antibody was re-captured. The experiment was run using Biacore T200 control software and evaluated using Biacore T200 Evaluation software. Curves were fit with a 1:1 kinetic binding model to obtain kon(1/Ms), koff(1/s), Kd (M) determined as koff/kon, and residence time determined as 1/koff. (s).
Anti-cotinine antibody was tested for binding to ARMs compounds of Formula (I) of the invention in the above assay in or more experimental runs and the results are shown in Table 5 below. Affinity is reported as a pKd value. The pKd value is the negative log of the Kd value, wherein the Kd value is the dissociation constant measured in molar (M) as noted above. For compounds tested in more than one experimental run, the pKd value is reported as an average

[3] = biological target: human alpha1 nicotinic acetylcholine (nACh) receptor (Homo sapiens, UniProt P02708+Q07001); assay: Nicotinic Acetylcholine Receptor Antagonism Assay (IONFlux automated patch clamp); format: cell-based; settings: for IC50: antagonism of nAChR stimulated with acetylcholine, average if several runs; for Emax at 100 µM: maximum percentage antagonism at Maximum Concentration of Compound Tested 100 μM, read-out: Maximum Response (%)
Chain of human alpha1 nicotinic acetylcholine (nACh) receptor (P02708 21-457): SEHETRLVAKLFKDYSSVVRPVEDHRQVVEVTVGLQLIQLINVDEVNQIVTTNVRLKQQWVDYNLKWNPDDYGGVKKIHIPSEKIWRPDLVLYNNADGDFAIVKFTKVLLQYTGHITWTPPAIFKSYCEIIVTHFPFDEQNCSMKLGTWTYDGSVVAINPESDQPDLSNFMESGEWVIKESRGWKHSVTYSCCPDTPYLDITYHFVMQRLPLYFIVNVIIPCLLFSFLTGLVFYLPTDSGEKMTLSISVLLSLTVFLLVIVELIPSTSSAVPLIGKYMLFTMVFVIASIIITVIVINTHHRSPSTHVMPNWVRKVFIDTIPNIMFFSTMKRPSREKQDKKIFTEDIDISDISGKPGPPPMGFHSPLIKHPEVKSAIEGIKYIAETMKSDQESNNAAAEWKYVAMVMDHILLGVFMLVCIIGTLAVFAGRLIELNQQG
Chain of human alpha1 nicotinic acetylcholine (nACh) receptor (P11230 24-501 partner): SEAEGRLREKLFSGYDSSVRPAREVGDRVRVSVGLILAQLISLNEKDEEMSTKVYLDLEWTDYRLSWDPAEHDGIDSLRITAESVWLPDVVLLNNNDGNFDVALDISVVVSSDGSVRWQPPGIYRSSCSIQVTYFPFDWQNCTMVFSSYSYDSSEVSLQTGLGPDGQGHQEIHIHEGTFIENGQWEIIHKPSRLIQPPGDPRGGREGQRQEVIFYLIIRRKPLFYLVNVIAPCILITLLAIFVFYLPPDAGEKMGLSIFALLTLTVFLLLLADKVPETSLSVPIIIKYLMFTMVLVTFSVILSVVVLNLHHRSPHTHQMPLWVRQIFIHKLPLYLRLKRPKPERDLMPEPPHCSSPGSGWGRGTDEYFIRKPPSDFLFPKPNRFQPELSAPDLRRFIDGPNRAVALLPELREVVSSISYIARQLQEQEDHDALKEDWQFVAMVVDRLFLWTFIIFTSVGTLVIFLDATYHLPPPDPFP
Chain of human alpha1 nicotinic acetylcholine (nACh) receptor (Q07001 22-517): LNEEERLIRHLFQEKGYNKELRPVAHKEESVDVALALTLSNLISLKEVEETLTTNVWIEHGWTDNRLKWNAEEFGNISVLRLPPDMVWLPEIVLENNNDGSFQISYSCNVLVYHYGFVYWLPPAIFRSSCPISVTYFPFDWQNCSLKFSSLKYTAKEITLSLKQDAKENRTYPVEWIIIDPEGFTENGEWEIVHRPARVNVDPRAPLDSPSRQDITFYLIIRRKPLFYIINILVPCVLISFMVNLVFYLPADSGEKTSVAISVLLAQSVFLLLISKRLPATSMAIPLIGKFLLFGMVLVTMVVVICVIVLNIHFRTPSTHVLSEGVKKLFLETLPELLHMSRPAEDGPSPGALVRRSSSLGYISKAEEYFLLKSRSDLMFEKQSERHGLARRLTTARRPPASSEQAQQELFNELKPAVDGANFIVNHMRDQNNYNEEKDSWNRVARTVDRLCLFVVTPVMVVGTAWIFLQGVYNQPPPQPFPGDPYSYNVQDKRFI
Experimental: Cells expressing human alpha1 nicotinic acetylcholine (nACh) receptor (nAChR) were washed and dissociated using Trypsin containing buffer. Cells were then washed and seeded at a density of 3-5 million cells/mL and allowed to grow for 3 days. Then, 60-80 μL of cells were added to plates and incubated with dose response of an ARM compound of Formula (I) with a top concentration of either 10 μM or 100 μM. The receptor was then stimulated via addition of acetylcholine (ACh) and activation of the receptor was monitored via the IONFlux automated patch clamp system. IonFlux Data Analyzer software was utilized to perform leak subtraction and measure (min) peak current amplitude.
Data processing: (1) Current values recorded for vehicle only applications in individual traps/patterns were subtracted from corresponding current amplitude values for control, test article and control+test article. (2) Control response was calculated as % of the average response of the 3rd out of total 3 ACh (10 mM) applications alone. In rare situations, if the 3rd ACh response was obscured due to technical artifacts, the 2nd and/or 1st ACh (10 mM) application was considered as control. The peak current amplitude generated in the presence of each test article concentration was then used to calculate the % inhibition as compared to control response (10 mM ACh alone). These estimates were further corrected for vehicle response and run down corrected by normalizing with time matched control responses (10 mM ACh alone). The corrected percentages were then fit with a non-linear function in GraphPad Prism 6 (or later versions) to determine the IC50.
Exclusion criteria: (i) any n's with poor recording quality, (ii) control current amplitude <500 pA or (iii) significant outliers, as determined by the Grubbs' test.
ARMs compounds of Formula (I) of the invention were tested for antagonism of the nAChR in the above assay in […] experimental runs and the results are shown in Table 6 below. Antagonistic activity of the compounds of Formula (I) of the invention is reported as an IC50 value (half maximal inhibitory concentration) and the maximum percentage antagonism observed at the highest concentration of compound of Formula (I) tested, as indicated in Table 6. For compounds tested in more than one experimental run, the IC50 value is reported as an average.

Structure (SMILES) | EC50 [1] [nM] | pKd of Antibody for ARM Compound of Formula (I) [2] | IC50 [3] [nM] | Emax at 100 µM [3] [%]
CO[C@@H]1COCC[C@@H]1N[C@@H]1CC[C@@](C(=O)N2Cc3cc(C(F)(F)F)cnc3[C@H](NC(=O)[C@H]3CC[C@H](NC(=O)CCCO[C@H]4CC[C@H](OCCNC(=O)[C@H]5CC(=O)N(C)[C@@H]5c5cccnc5)CC4)CC3)C2)(C(C)C)C1 [Example 14, (2S,3S)-N-(2-(((1R,4S)-4-(4-(((1R,4R)-4-(((R)-6-((1S,3R)-1-isopropyl-3-(((3S,4S)-3-methoxytetrahydro-2H-pyran-4-yl)amino)cyclopentane-1-carbonyl)-3-(trifluoromethyl)-5,6,7,8-tetrahydro-1,6-naphthyridin-8-yl)carbamoyl)cyclohexyl)amino)-4-oxobutoxy)cyclohexyl)oxy)ethyl)-1-methyl-5-oxo-2-(pyridin-3-yl)pyrrolidine-3-carboxamide, 3Formic acid salt] | < 0.002 | 9.0 | > 100000 | 38
CO[C@@H]1COCC[C@@H]1N[C@@H]1CC[C@](CCNC(=O)[C@H]2CC[C@H](NC(=O)CCCO[C@H]3CC[C@H](OCCNC(=O)[C@H]4CC(=O)N(C)[C@@H]4c4cccnc4)CC3)CC2)(C(=O)N2CCc3ncc(C(F)(F)F)cc3C2)C1 [Example 8, (2S,3S)-N-(2-(((1R,4S)-4-(4-(((1R,4R)-4-((2-((1R,3R)-3-(((3S,4S)-3-Methoxytetrahydro-2H-pyran-4-yl)amino)-1-(3-(trifluoromethyl)-5,6,7,8-tetrahydro-1,6-naphthyridine-6-carbonyl)cyclopentyl)ethyl)carbamoyl)cyclohexyl)amino)-4-oxobutoxy)cyclohexyl)oxy)ethyl)-1-methyl-5-oxo-2-(pyridin-3-yl)pyrrolidine-3-carboxamide] | 1.58 | 9.1 |  | 48
CO[C@@H]1COCC[C@@H]1N[C@@H]1CC[C@@](C(=O)N2Cc3cc(C(F)(F)F)cnc3[C@@H](NC(=O)[C@H]3CC[C@H](NC(=O)CCCO[C@H]4CC[C@H](OCCNC(=O)[C@H]5CC(=O)N(C)[C@@H]5c5cccnc5)CC4)CC3)C2)(C(C)C)C1 [Example 15, (2S,3S)-N-(2-(((1R,4S)-4-(4-(((1S,4R)-4-(((S)-6-((1S,3R)-1-isopropyl-3-(((3S,4S)-3-methoxytetrahydro-2H-pyran-4-yl)amino)cyclopentane-1-carbonyl)-3-(trifluoromethyl)-5,6,7,8-tetrahydro-1,6-naphthyridin-8-yl)carbamoyl)cyclohexyl)amino)-4-oxobutoxy)cyclohexyl)oxy)ethyl)-1-methyl-5-oxo-2-(pyridin-3-yl)pyrrolidine-3-carboxamide] | 0.2 | 9.0 |  | 
CO[C@@H]1COCC[C@@H]1N[C@@H]1CC[C@](CCCCNC(=O)[C@H]2CC[C@H](NC(=O)CCCO[C@H]3CC[C@H](OCCNC(=O)[C@H]4CC(=O)N(C)[C@@H]4c4cccnc4)CC3)CC2)(C(=O)N2CCc3ncc(C(F)(F)F)cc3C2)C1 [Example 7, (2S,3S)-N-(2-(((1R,4S)-4-(4-(((1S,4R)-4-((4-((1S,3R)-3-(((3S,4S)-3-Methoxytetrahydro-2H-pyran-4-yl)amino)-1-(3-(trifluoromethyl)-5,6,7,8-tetrahydro-1,6-naphthyridine-6-carbonyl)cyclopentyl)butyl)carbamoyl)cyclohexyl)amino)-4-oxobutoxy)cyclohexyl)oxy)ethyl)-1-methyl-5-oxo-2-(pyridin-3-yl)pyrrolidine-3-carboxamide] | 2.51 | 9.2 | 94000 | 54
CO[C@@H]1COCC[C@@H]1N[C@@H]1CC[C@](CCCNC(=O)[C@H]2CC[C@H](NC(=O)CCCO[C@H]3CC[C@H](OCCNC(=O)[C@H]4CC(=O)N(C)[C@@H]4c4cccnc4)CC3)CC2)(C(=O)N2CCc3ncc(C(F)(F)F)cc3C2)C1 [Example 3, (2S,3S)-N-(2-(((1R,4S)-4-(4-(((1S,4R)-4-((3-((1S,3R)-3-(((3S,4S)-3-Methoxytetrahydro-2H-pyran-4-yl)amino)-1-(3-(trifluoromethyl)-5,6,7,8-tetrahydro-1,6-naphthyridine-6-carbonyl)cyclopentyl)propyl)carbamoyl)cyclohexyl)amino)-4-oxobutoxy)cyclohexyl)oxy)ethyl)-1-methyl-5-oxo-2-(pyridin-3-yl)pyrrolidine-3-carboxamide] | 0.631 | 9.1 | > 100000 | 38
CO[C@@H]1COCC[C@@H]1N[C@@H]1CC[C@](CCC2CCN(C(=O)[C@H]3CC[C@H](NC(=O)CCCO[C@H]4CC[C@H](OCCNC(=O)[C@H]5CC(=O)N(C)[C@@H]5c5cccnc5)CC4)CC3)CC2)(C(=O)N2CCc3ncc(C(F)(F)F)cc3C2)C1 [Example 2, (2S,3S)—N-(2-(((1R,4S)-4-(4-(((1S,4R)-4-(4-(2-((1S,3R)-3-(((3S,4S)-3-Methoxytetrahydro-2H-pyran-4-yl)amino)-1-(3-(trifluoromethyl)-5,6,7,8-tetrahydro-1,6-naphthyridine-6-carbonyl)cyclopentyl)ethyl)piperidine-1-carbonyl)cyclohexyl)amino)-4-oxobutoxy)cyclohexyl)oxy)ethyl)-1-methyl-5-oxo-2-(pyridin-3-yl)pyrrolidine-3-carboxamide] | 12.6 | 9.2 | > 100000 | 40
CO[C@@H]1COCC[C@@H]1N[C@@H]1CC[C@@](C(=O)N2CCc3nc(CCCCOc4cccc(C(=O)NCCOCCOCCOCCOCCOCCOCCOCCOCCOCCNC(=O)[C@H]5CC(=O)N(C)[C@@H]5c5cccnc5)c4)c(C(F)(F)F)cc3C2)(C(C)C)C1 [Example 22, (2S,3S)—N-(1-(3-(4-(6-((1S,3R)-1-Isopropyl-3-(((3S,4S)-3-methoxytetrahydro-2H-pyran-4-yl)amino)cyclopentane-1-carbonyl)-3-(trifluoromethyl)-5,6,7,8-tetrahydro-1,6-naphthyridin-2-yl)butoxy)phenyl)-1-oxo-5,8,11,14,17,20,23,26,29-nonaoxa-2-azahentriacontan-31-yl)-1-methyl-5-oxo-2-(pyridin-3-yl)pyrrolidine-3-carboxamide] | 1.58 | 9.3 |  | 
